{"source": "ChEMBL document CHEMBL1139937", "about": "“Novel 3-galloylamido-N'-substituted-2,6-piperidinedione-N-acetamide peptidomimetics as metalloproteinase inhibitors” (Bioorg Med Chem Lett, 2007)", "key": {"Aminopeptidase N": {"molecular_target": "T1, Aminopeptidase N (Sus scrofa, UniProt P15145)", "T1 sequence (P15145 whole entry)": "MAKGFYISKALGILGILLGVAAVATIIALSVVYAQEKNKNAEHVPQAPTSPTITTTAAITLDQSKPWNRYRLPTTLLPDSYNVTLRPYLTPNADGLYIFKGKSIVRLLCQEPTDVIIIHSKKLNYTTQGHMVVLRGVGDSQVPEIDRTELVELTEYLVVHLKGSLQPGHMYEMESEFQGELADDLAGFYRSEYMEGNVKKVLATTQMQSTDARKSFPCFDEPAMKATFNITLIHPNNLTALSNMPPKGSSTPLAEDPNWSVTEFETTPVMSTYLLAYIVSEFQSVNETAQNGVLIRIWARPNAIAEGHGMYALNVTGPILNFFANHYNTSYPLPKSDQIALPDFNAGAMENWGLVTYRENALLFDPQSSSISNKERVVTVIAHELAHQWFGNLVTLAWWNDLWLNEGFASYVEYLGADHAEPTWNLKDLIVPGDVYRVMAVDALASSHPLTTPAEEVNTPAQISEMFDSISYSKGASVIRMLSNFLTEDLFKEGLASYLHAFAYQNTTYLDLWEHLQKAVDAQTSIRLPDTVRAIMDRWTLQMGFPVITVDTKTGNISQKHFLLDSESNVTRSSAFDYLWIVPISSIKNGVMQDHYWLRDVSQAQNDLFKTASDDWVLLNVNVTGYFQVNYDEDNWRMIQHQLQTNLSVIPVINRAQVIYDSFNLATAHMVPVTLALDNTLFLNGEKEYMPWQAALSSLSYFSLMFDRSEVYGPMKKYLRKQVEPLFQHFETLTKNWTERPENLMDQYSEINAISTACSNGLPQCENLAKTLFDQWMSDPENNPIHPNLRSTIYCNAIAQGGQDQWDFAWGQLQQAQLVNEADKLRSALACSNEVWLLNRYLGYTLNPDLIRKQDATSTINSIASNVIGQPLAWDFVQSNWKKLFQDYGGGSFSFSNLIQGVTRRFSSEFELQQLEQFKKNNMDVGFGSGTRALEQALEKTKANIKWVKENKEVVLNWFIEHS", "test": "Inhibition of pig kidney microsomal aminopeptidase assessed as liberation of p-nitroanilide"}, "[1]": {"molecular_target": "72 kDa type IV collagenase (Homo sapiens, UniProt P08253)", "sequence (P08253 whole entry)": "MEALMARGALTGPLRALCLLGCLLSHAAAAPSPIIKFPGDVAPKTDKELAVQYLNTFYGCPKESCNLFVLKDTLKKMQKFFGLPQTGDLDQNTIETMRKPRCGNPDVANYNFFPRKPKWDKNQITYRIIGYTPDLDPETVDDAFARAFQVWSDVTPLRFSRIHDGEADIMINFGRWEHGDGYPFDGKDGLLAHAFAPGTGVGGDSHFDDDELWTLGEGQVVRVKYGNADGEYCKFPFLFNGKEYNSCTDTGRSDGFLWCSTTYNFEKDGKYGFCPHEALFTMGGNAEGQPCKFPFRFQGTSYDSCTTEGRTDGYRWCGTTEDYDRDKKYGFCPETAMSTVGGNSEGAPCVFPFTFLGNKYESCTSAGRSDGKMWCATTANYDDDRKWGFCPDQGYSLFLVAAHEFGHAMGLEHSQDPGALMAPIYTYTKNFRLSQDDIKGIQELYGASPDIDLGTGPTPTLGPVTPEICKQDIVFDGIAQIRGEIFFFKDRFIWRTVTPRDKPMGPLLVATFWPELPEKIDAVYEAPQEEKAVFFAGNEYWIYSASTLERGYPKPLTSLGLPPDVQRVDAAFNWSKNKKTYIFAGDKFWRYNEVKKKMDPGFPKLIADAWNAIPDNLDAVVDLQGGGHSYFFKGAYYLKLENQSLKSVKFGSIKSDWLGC", "test": "Inhibition of MMP2 after 30 mins"}}, "data": [{"molecule": "COC(=O)[C@H](Cc1c[nH]c2ccccc12)NC(=O)CN1C(=O)CC[C@H](NC(=O)c2cc(OC)c(OC)c(OC)c2)C1=O", "values": [{"measurement": "IC50", "setting": "Aminopeptidase N", "result": 43.1, "unit": "µM"}, {"measurement": "IC50", "setting": "[1]", "result": 1.2, "unit": "µM"}]}, {"molecule": "COC(=O)[C@H](Cc1cnc[nH]1)NC(=O)CN1C(=O)CC[C@H](NC(=O)c2cc(OC)c(OC)c(OC)c2)C1=O", "values": [{"measurement": "IC50", "setting": "Aminopeptidase N", "result": 5.2, "unit": "µM"}, {"measurement": "IC50", "setting": "[1]", "result": 13, "unit": "µM"}]}, {"molecule": "COC(=O)[C@@H](Cc1ccccc1)NC(=O)CN1C(=O)CC[C@H](NC(=O)c2cc(OC)c(OC)c(OC)c2)C1=O", "values": [{"measurement": "IC50", "setting": "Aminopeptidase N", "result": 46.2, "unit": "µM"}, {"measurement": "IC50", "setting": "[1]", "result": 1.4, "unit": "µM"}]}, {"molecule": "COC(=O)[C@H](Cc1ccccc1)NC(=O)CN1C(=O)CC[C@H](NC(=O)c2cc(OC)c(OC)c(OC)c2)C1=O", "values": [{"measurement": "IC50", "setting": "Aminopeptidase N", "result": 11, "unit": "µM"}, {"measurement": "IC50", "setting": "[1]", "result": 1.3, "unit": "µM"}]}, {"molecule": "COC(=O)[C@H](CS)NC(=O)CN1C(=O)CC[C@H](NC(=O)c2cc(OC)c(OC)c(OC)c2)C1=O", "values": [{"measurement": "IC50", "setting": "Aminopeptidase N", "result": 50.3, "unit": "µM"}, {"measurement": "IC50", "setting": "[1]", "result": 1.7, "unit": "µM"}]}, {"molecule": "COC(=O)CN1C(=O)CC[C@H](NC(=O)c2cc(OC)c(OC)c(OC)c2)C1=O", "values": [{"measurement": "IC50", "setting": "Aminopeptidase N", "result": 63.4, "unit": "µM"}, {"measurement": "IC50", "setting": "[1]", "result": 10.6, "unit": "µM"}]}, {"molecule": "COc1cc(C(=O)N[C@H]2CCC(=O)N(CC(=O)NO)C2=O)cc(OC)c1OC", "values": [{"measurement": "IC50", "setting": "Aminopeptidase N", "result": 3.1, "unit": "µM"}, {"measurement": "IC50", "setting": "[1]", "result": 2.2, "unit": "µM"}]}, {"molecule": "COc1cc(C(=O)N[C@H]2CCC(=O)N(CC(=O)O)C2=O)cc(OC)c1OC", "values": [{"measurement": "IC50", "setting": "Aminopeptidase N", "result": 49.8, "unit": "µM"}, {"measurement": "IC50", "setting": "[1]", "result": 4, "unit": "µM"}]}, {"molecule": "COC(=O)CNC(=O)CN1C(=O)CC[C@H](NC(=O)c2cc(OC)c(OC)c(OC)c2)C1=O", "values": [{"measurement": "IC50", "setting": "Aminopeptidase N", "result": 55.4, "unit": "µM"}, {"measurement": "IC50", "setting": "[1]", "result": 4.4, "unit": "µM"}]}, {"molecule": "COC(=O)[C@H](CCCNC(N)=N[N+](=O)[O-])NC(=O)CN1C(=O)CC[C@H](NC(=O)c2cc(OC)c(OC)c(OC)c2)C1=O", "values": [{"measurement": "IC50", "setting": "Aminopeptidase N", "result": 42, "unit": "µM"}, {"measurement": "IC50", "setting": "[1]", "result": 0.3, "unit": "µM"}]}, {"molecule": "COC(=O)[C@@H](NC(=O)CN1C(=O)CC[C@H](NC(=O)c2cc(OC)c(OC)c(OC)c2)C1=O)C(C)C", "values": [{"measurement": "IC50", "setting": "Aminopeptidase N", "result": 21.4, "unit": "µM"}, {"measurement": "IC50", "setting": "[1]", "result": 1, "unit": "µM"}]}, {"molecule": "COC(=O)[C@H](CC(C)C)NC(=O)CN1C(=O)CC[C@H](NC(=O)c2cc(OC)c(OC)c(OC)c2)C1=O", "values": [{"measurement": "IC50", "setting": "Aminopeptidase N", "result": 46.2, "unit": "µM"}, {"measurement": "IC50", "setting": "[1]", "result": 3.8, "unit": "µM"}]}, {"molecule": "CC[C@H](C)[C@H](NC(=O)CN1C(=O)CC[C@H](NC(=O)c2cc(OC)c(OC)c(OC)c2)C1=O)C(=O)OC", "values": [{"measurement": "IC50", "setting": "Aminopeptidase N", "result": 49.3, "unit": "µM"}, {"measurement": "IC50", "setting": "[1]", "result": 4.3, "unit": "µM"}]}, {"molecule": "COC(=O)CCNC(=O)CN1C(=O)CC[C@H](NC(=O)c2cc(OC)c(OC)c(OC)c2)C1=O", "values": [{"measurement": "IC50", "setting": "Aminopeptidase N", "result": 53.7, "unit": "µM"}, {"measurement": "IC50", "setting": "[1]", "result": 2.2, "unit": "µM"}]}, {"molecule": "COC(=O)[C@H](C)NC(=O)CN1C(=O)CC[C@H](NC(=O)c2cc(OC)c(OC)c(OC)c2)C1=O", "values": [{"measurement": "IC50", "setting": "Aminopeptidase N", "result": 18.9, "unit": "µM"}, {"measurement": "IC50", "setting": "[1]", "result": 1.2, "unit": "µM"}]}, {"molecule": "COC(=O)[C@H](CCSC)NC(=O)CN1C(=O)CC[C@H](NC(=O)c2cc(OC)c(OC)c(OC)c2)C1=O", "values": [{"measurement": "IC50", "setting": "Aminopeptidase N", "result": 20.7, "unit": "µM"}, {"measurement": "IC50", "setting": "[1]", "result": 1.2, "unit": "µM"}]}, {"molecule": "COC(=O)[C@H](CCCCNC(=O)c1ccccc1)NC(=O)CN1C(=O)CC[C@H](NC(=O)c2cc(OC)c(OC)c(OC)c2)C1=O", "values": [{"measurement": "IC50", "setting": "Aminopeptidase N", "result": 38.1, "unit": "µM"}, {"measurement": "IC50", "setting": "[1]", "result": 0.6, "unit": "µM"}]}, {"molecule": "COC(=O)[C@H](Cc1ccc(O)cc1)NC(=O)CN1C(=O)CC[C@H](NC(=O)c2cc(OC)c(OC)c(OC)c2)C1=O", "values": [{"measurement": "IC50", "setting": "Aminopeptidase N", "result": 44.8, "unit": "µM"}, {"measurement": "IC50", "setting": "[1]", "result": 0.3, "unit": "µM"}]}, {"molecule": "COC(=O)[C@@H](NC(=O)CN1C(=O)CC[C@H](NC(=O)c2cc(OC)c(OC)c(OC)c2)C1=O)[C@@H](C)O", "values": [{"measurement": "IC50", "setting": "Aminopeptidase N", "result": 51.9, "unit": "µM"}, {"measurement": "IC50", "setting": "[1]", "result": 1.8, "unit": "µM"}]}, {"molecule": "COC(=O)[C@](C)(Cl)NC(=O)CN1C(=O)CC[C@H](NC(=O)c2cc(OC)c(OC)c(OC)c2)C1=O", "values": [{"measurement": "IC50", "setting": "Aminopeptidase N", "result": 50, "unit": "µM"}, {"measurement": "IC50", "setting": "[1]", "result": 15.6, "unit": "µM"}]}, {"molecule": "COC(=O)C[C@H](NC(=O)CN1C(=O)CC[C@H](NC(=O)c2cc(OC)c(OC)c(OC)c2)C1=O)C(=O)OC", "values": [{"measurement": "IC50", "setting": "Aminopeptidase N", "result": 21.7, "unit": "µM"}, {"measurement": "IC50", "setting": "[1]", "result": 0.5, "unit": "µM"}]}, {"molecule": "CC(C)C[C@H](NC(=O)[C@@H](O)[C@H](N)Cc1ccccc1)C(=O)O", "note": "[UBENIMEX]", "values": [{"measurement": "IC50", "setting": "[1]", "result": 3.4, "unit": "µM"}]}]}
